Legend:
[1] = biological target: T1, 12-lipoxygenase (Rattus norvegicus, UniProt F1LQ70); experiment: 12-Lipoxygenase Inhibition Activity (In Vitro), 12-HETE production by rat platelet enzyme solution; assay type: biochemical; settings: [14C]-arachidonic acid, 5 min pre-incubation at 37° C., 5 min reaction, read-out: Inhibition rate (%) of 12-HETE production; for inhibition at 1 µM: 10^-6 M; for inhibition at 0.1 µM: 10^-7 M
T1 construct: the frozen platelet rich plasma was allowed to melt and then subjected to ultrasonic treatment in ice water so that an enzyme solution was obtained; from tissue; host or cells: rat platelets (washed, frozen, sonicated; crude enzyme solution)
T1 sequence (F1LQ70 1-663): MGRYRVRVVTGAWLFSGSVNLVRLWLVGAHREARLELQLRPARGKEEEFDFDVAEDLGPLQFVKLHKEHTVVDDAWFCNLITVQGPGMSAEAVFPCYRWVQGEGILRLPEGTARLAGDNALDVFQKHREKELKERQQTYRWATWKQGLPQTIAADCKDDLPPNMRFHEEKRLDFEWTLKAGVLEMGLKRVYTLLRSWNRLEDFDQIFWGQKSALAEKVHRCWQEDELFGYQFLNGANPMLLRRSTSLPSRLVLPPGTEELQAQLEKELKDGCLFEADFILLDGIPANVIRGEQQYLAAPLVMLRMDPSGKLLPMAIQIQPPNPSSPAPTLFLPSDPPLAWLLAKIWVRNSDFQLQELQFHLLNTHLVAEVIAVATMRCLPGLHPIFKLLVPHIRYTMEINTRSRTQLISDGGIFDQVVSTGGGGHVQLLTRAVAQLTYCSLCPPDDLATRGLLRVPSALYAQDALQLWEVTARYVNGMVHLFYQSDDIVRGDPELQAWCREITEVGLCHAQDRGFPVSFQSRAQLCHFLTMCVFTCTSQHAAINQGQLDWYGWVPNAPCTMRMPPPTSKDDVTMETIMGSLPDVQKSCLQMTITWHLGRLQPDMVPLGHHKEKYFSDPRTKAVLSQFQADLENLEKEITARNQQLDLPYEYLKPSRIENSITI
Method: The 12-lipoxygenase inhibition activity of each test compound according to the present invention was measured in the following manner.
Firstly, blood was collected from the heart of a rat (while using sodium citrate as an anticoagulant), and platelet rich plasma was prepared by a method known per se in the art. The platelet rich plasma was washed twice with a isotonic buffer (A) [134 mM of NaCl, 5 mM of D-glucose, 1 mM of EDTA, 1 mM of EGTA, 15 mM of tris-HCl (pH 7.4)] and was then frozen and stored at -80° C. Prior to a pharmacological test, the frozen platelet rich plasma was allowed to melt and then subjected to ultrasonic treatment in ice water so that an enzyme solution was obtained. To the isotonic buffer (A), 1 mM of GSH, the test compound (adjusted to have the final concentrations of 1 μM and 0.1 μM) and the enzyme solution (300-500 μg of protein) were added. Subsequent to pre-incubation at 37° C. for 5 minutes, [^14 C]-arachidonic acid (0.05 μCi) (final concentration: […]) was added to react it for 5 minutes. After the reaction was terminated, the reaction mixture was spread over a thin layer plate of silica gel to conduct autoradiography. 12-HETE was identified and a reduction in its production was determined as an index for its 12-lipoxygenase inhibition activity.

[2] = tested on: 12-lipoxygenase; settings: conventionally known compound; cited from earlier work
[3] = tested on: 12-Lipoxygenase in platelets; experiment: 12-Lipoxygenase Inhibition Activity in Platelets (Extro Vivo); set-up: species or system SD rat; settings: 1.0 mg/kg i.v., blood 10 min after administration; base preparation group = 100%
Method: Under anesthesia with pentobarbital, an SD rat (8 week-old, male) was intravenously administered with a polyethylene glycol solution containing 1.0 mg/kg of a test compound. Ten minutes after the administration, blood was collected from the abdominal vena cava, and the inhibitory activity was measured as in the above test (1).
Setting at 100% the amount of 12-HETE of the group in which a base preparation was administered instead of the drugs, the results, namely, the amount of 12-HETE obtained when each test drug was administered was indicated in terms of %.

SMILES | inhibition at 1 µM [1] [%] | inhibition at 0.1 µM [1] [%] | 12-lipoxygenase inhibitory action [2] | inhibitory effect on amount of 12-HETE [3] [%]
COC(=O)Oc1ccc(C=C(C#N)C(=O)OCCc2cccs2)cc1OC(=O)OC [Compound 19, 2-(2-thienyl)-ethyl 2-cyano-3-(3,4-dimethoxycarbonyloxyphenyl)-2-propenoate] | 50.8 | 4.6 |  | 
O=c1cc(-c2ccccc2)oc2cc(O)c(O)c(O)c12 [baicalein] |  |  | 12-lipoxygenase inhibitory action | 
N#CC(=Cc1ccc(OC(=O)OCc2ccccc2)c(OC(=O)OCc2ccccc2)c1)C(=O)OCCc1cccs1 [Compound 21, 2-(2-thienyl)-ethyl 2-cyano-3-(3,4-dibenzyloxycarbonyloxyphenyl)-2-propenoate] | 41.6 | < 0 |  | 
CCOC(=O)Oc1ccc(C=C(C#N)C(=O)OCC)cc1OC(=O)OCC [Compound 6, ethyl 2-cyano-3-(3,4-diethoxycarbonyloxyphenyl)-2-propenoate] |  | 60.3 |  | 
N#CC(=Cc1ccc2oc(=O)oc2c1)C(=O)Oc1ccccc1 [Compound 36, phenyl 2-cyano-3-(3,4-cyclic dioxolonylphenyl)-2-propenoate] |  | 75.6 |  | 
CCOC(=O)Oc1cc(C=C(C#N)C(=O)OCCc2cccs2)cc(OC(=O)OCC)c1OC(=O)OCC [Compound 29, 2-(2-thienyl)-ethyl 2-cyano-3-(3,4,5-triethoxycarbonyloxyphenyl)-2-propenoate] | 59.2 | 25.1 |  | 
N#CC(=Cc1ccc2oc(=O)oc2c1)C(=O)OCCc1cccs1 [Compound 34, 2-(2-thienyl)-ethyl 2-cyano-3-(3,4-cyclic dioxolonylphenyl)-2-propenoate] |  | 91.5 |  | 
CC(C)COC(=O)Oc1ccc(C=C(C#N)C(=O)OCCc2cccs2)cc1OC(=O)OCC(C)C [Compound 20, 2-(2-thienyl)-ethyl 2-cyano-3-(3,4-diisobutoxycarbonyloxyphenyl)-2-propenoate] | 63.4 | 41.2 |  | 
CCCCCCCOC(=O)Oc1ccc(C=C(C#N)C(=O)OCCc2cccs2)cc1OC(=O)OCCCCCCC [Compound 22, 2-(2-thienyl)-ethyl 2-cyano-3-(3,4-diheptoxycarbonyloxyphenyl)-2-propenoate] | 27.6 | 14 |  | 

The next lines start with results.

inhibition at 1 µM [1] [%] | inhibition at 0.1 µM [1] [%] | SMILES | 12-lipoxygenase inhibitory action [2] | inhibitory effect on amount of 12-HETE [3] [%]
75.6 | 40.8 | CCC[C@H](OC(=O)C(C#N)=Cc1ccc(OC(=O)OCC)c(OC(=O)OCC)c1)c1ccccc1 [Compound 7, (S)-(-)-1-phenylbutyl 2-cyano-3-(3,4-diethoxycarbonyloxyphenyl)-2-propenoate] |  | 
40.8 | < 0 | CCOC(=O)Oc1ccc(C=C(C#N)C(=O)OCCCc2cccnc2)cc1OC(=O)OCC [Compound 13, 3-(3-pyridyl)-propyl 2-cyano-3-(3,4-diethoxycarbonyloxyphenyl)-2-propenoate] |  | 
53.8 | 23.5 | CCOC(=O)Oc1ccc(C=C(C#N)C(=O)OCc2ccco2)cc1OC(=O)OCC [Compound 11, 2-furylmethyl 2-cyano-3-(3,4-diethoxycarbonyloxyphenyl)-2-propenoate] |  | 
79.3 | 38.7 | CCOC(=O)Oc1ccc(C=C(C#N)C(=O)OCCc2ccsc2)cc1OC(=O)OCC [Compound 10, 2-(3-thienyl)-ethyl 2-cyano-3-(3,4-diethoxycarbonyloxyphenyl)-2-propenoate] |  | 
84.5 | 64.5 | CCOC(=O)Oc1cc(C=C(C#N)C(=O)OCCc2cccs2)ccc1O [Compound 23, 2-(2-thienyl)-ethyl 2-cyano-3-(3-ethoxycarbonyloxy-4-hydroxyphenyl)-2-propenoate] |  | 
75.9 | 59.3 | CCOC(=O)Oc1cc(C=C(C#N)C(=O)OCCc2ccccc2)ccc1O [Compound 17, phenethyl 2-cyano-3-(3-ethoxycarbonyloxy-4-hydroxyphenyl)-2-propenoate] |  | 18
68.4 | 16.3 | CCOC(=O)Oc1ccc(C=C(C#N)C(=O)OCCCc2ccccn2)cc1OC(=O)OCC [Compound 12, 3-(2-pyridyl)-propyl 2-cyano-3-(3,4-diethoxycarbonyloxyphenyl)-2-propenoate] |  | 
64.6 | 34.6 | CCOC(=O)Oc1ccc(C=C(C#N)C(=O)OCc2ccsc2)cc1OC(=O)OCC [Compound 14, 3-thienylmethyl 2-cyano-3-(3,4-diethoxycarbonyloxyphenyl)-2-propenoate] |  | 
 | 65.8 | CCOC(=O)Oc1ccc(C=C(C#N)C(=O)OCCc2cccs2)cc1OC(=O)OCC [Compound 18, 2-(2-thienyl)-ethyl 2-cyano-3-(3,4-diethoxycarbonyloxyphenyl)-2-propenoate] |  | 
82.9 | 56.6 | N#CC(=Cc1ccc2oc(=O)oc2c1)C(=O)OCCc1ccccc1 [Compound 35, phenethyl 2-cyano-3-(3,4-cyclic dioxolonylphenyl)-2-propenoate] |  | 
71.8 | 4.2 | CCOC(=O)Oc1ccc(C=C(C#N)C(=O)OC(C)Cc2ccccc2)cc1OC(=O)OCC (centres unmarked) [Compound 9, 1-methyl-2-phenylethyl 2-cyano-3-(3,4-diethoxycarbonyloxyphenyl)-2-propenoate] |  | 
65.1 | 9.4 | CCC[C@@H](OC(=O)C(C#N)=Cc1ccc(OC(=O)OCC)c(OC(=O)OCC)c1)c1ccccc1 [Compound 8, (R)-(+)-1-phenylbutyl 2-cyano-3-(3,4-diethoxycarbonyloxyphenyl)-2-propenoate] |  | 
85.4 | 52.9 | CCOC(=O)Oc1ccc(C=C(C#N)C(=O)OCCc2ccccc2)cc1OC(=O)OCC [Compound 1, phenethyl 2-cyano-3-(3,4-diethoxycarbonyloxyphenyl)-2-propenoate] |  | 30

Reference: patent US5232941A, “Caffeic acid derivatives and pharmaceutical compositions containing the same” (Suntory Limited, priority 1990, dated 1993)
